The source of these data is US20050282843A1, “Therapeutic applications of 2-substituted 4-heteroarylpyrimidines” (priority 2002, published 2005).

Data set [1] deals with GSK-3β (Oryctolagus cuniculus, UniProt G1T8E2). As to the kind of experiment: GSK-3β kinase assay (phosphorylation of CREB phosphopeptide). In kind it is biochemical, rabbit. How it is done: (§1) GSK-3 was obtained from New England Biolabs (UK) Ltd., Hitchin, Herts. The recombinant enzyme was isolated from a strain of E. coli that carries a clone expressing GSK-3β derived from a rabbit skeletal muscle cDNA library [Wang, Q. M.; Fiol, C. […] The samples were transferred to 96-well p81 filter plates (Whatman Polyfiltronics, Kent, UK), and the plates were washed 4 times with 200 μL/well of 75 mM aq orthophosphoric acid.

Data set [2] has as its system GSK-3β. The description is as above. The format is biochemical, rabbit. The conditions noted are these: ratio of IC50 values. As to the method: as §1
For a further data set, the target named is T1, CDK2/cyclin E (Homo sapiens, UniProt P24941).
T1 construct: His6; made in house; host or cells: Sf9 insect cells (baculovirus)
As to the kind of experiment: CDK/cyclin kinase assay, CDK2/cyclin E. The format is biochemical. The following applies: read-out: Kinase inhibition IC50 CDK2/E.

A further data set deals with CDK2/cyclin A (Homo sapiens, UniProt P24941). As to the kind of experiment: CDK/cyclin kinase assay, CDK2/cyclin A.
A further data set deals with CDK1/cyclin B1 (Homo sapiens, UniProt P06493). The data set is described as follows: CDK/cyclin kinase assay, CDK1/cyclin B1.
The next data set concerns the target CDK4/cyclin D1 (Homo sapiens, UniProt P11802). As to the kind of experiment: CDK/cyclin kinase assay, CDK4/cyclin D1.
The subject of data set [3] is cellular glycogen synthase activity in HEK293 cells. As to the kind of experiment: Glycogen synthase (GS) assay in HEK293 cells. The format is cell-based, human. The following applies: for -Fold induction of GS activity: In HEK293 cells at [compound] = 5 μM, over control samples. How it is done:
(§2) Cells on 10 cm dishes (Human Embryonic Kidney (HEK) 293 cells, L6 rat myocytes, or 3T3 mouse adipocytes) were treated with different concentrations of GSK3-inhibitors or DMSO vehicle for 90 min. Incubation medium was removed and cells were washed with ice-cold phosphate-buffered saline (PBS) prior to lysis on ice in 50 mM HEPES, pH 7.5, 10 mM EDTA, 100 mM NaF, 5 mM DTT, protease inhibitor cocktail (Sigma). After a freeze/thaw cycle the samples are sonicated for 10 sec and centrifuged at 15,000 g for 10 min at 4° C. Lysate supernatants were snap-frozen on liquid nitrogen and stored at −80° C. Lysates were assayed for glycogen synthase activity in buffer (50 mM Tris-HCl, pH 7.8, 20 mM EDTA, 25 mM NaF, 5 mM DTT, 1% glycogen, 0.3 mM UDP-glucose and 0.06 μCi of [^14C]-UDP-glucose in the presence of 0.1 or 10 mM glucose-6-phosphate. The reaction was carried out for 30 min at 30° C. 70 μL of the reaction mixture (total volume 90 μL) were transferred to a GFC 96-well filter plate (bottom sealed with foil), containing 140 μL 96% ethanol. The GFC plate was incubated for 1 h on ice and than washed with 66% ethanol. To each well 100 μL scintillant liquid was added and the radioactivity of the samples was measured using a scintillation counter (Topcount, HP). Data are expressed as -fold increase in glycogen synthase activity ratios over those of control samples.

In data set [4] the test system is cellular glycogen synthase activity in L6 rat myocyte cells. The data set is described as follows: Glycogen synthase (GS) assay in L6 rat myocytes. The format is cell-based. As to the method: Rat skeletal muscle myoblasts L6/G8.C5 were seeded at 2.4×10^5 cells per 10 cm dish in DMEM 10% foetal calf serum (FCS), containing penicillin/streptomycin. When 90% confluence was reached the medium was exchanged with α MEM, supplemented with 2% FCS and penicillin/streptomycin. Medium was refreshed every 48 hours and 4-7 days later the myocytes were formed.
as §2

In data set [5] the test system is cellular glycogen synthase activity in 3T3 mouse adipocyte cells. The data set is described as follows: Glycogen synthase (GS) assay in 3T3 mouse adipocytes. In kind it is cell-based. How it is done:
Mouse pre-adipocytes 3T3-F442A were seeded at 9×10^5 cells per 10 cm dish in DMEM 10% FCS, containing penicillin/streptomycin. When 90% confluent, the same medium was supplemented with […] insulin. After 3-5 days (when most cells were differentiated) insulin was removed and 4 days later the cells were ready to use.
as §2

Where [6] appears, read: read-out: IC50 value as measured by a GSK3β kinase assay.
Setting [7] is: read-out: Kinase inhibition IC50 GSK3β.

Structures are written as SMILES. Where two headings read alike, the source gives them in different places.

Chain of CDK4/cyclin D1 (P11802 whole entry): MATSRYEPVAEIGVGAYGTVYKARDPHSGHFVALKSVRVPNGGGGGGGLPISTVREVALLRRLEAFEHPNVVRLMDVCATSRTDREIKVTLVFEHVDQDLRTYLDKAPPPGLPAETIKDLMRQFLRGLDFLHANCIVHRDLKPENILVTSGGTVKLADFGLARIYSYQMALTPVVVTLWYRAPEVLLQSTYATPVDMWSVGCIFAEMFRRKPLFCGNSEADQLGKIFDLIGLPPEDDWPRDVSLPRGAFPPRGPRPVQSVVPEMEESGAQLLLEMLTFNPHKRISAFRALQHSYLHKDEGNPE
Chain of CDK4/cyclin D1 (P24385 whole entry partner): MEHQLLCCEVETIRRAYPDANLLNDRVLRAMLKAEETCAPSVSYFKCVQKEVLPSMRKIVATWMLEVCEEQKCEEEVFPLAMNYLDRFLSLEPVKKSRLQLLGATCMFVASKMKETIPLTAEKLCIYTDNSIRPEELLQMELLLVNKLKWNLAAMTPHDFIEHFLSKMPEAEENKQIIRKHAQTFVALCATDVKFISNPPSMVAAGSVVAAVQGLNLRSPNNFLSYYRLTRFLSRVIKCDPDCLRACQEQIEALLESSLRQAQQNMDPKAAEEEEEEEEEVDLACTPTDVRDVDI
Chain of CDK1/cyclin B1 (P06493 whole entry): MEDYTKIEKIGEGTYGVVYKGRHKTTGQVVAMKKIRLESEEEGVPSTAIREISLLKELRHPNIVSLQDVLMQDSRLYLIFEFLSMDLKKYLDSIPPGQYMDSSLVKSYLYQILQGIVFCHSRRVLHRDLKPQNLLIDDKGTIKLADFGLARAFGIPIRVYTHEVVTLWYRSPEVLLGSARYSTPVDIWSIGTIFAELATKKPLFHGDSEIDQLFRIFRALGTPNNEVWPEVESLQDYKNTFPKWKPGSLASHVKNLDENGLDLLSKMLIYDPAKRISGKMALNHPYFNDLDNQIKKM
Chain of CDK1/cyclin B1 (P14635 whole entry partner): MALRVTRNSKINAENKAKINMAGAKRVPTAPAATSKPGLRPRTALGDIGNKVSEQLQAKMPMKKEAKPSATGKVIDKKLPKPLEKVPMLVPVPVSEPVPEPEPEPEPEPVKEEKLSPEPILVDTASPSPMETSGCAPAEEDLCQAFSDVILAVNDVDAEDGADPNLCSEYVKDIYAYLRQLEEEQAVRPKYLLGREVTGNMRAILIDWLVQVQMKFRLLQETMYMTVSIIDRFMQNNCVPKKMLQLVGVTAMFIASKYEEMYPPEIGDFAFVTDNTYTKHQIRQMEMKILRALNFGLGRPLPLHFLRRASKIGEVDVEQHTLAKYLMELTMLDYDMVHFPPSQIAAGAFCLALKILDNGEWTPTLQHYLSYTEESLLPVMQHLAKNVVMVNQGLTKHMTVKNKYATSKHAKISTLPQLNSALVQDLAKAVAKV
Chain of GSK-3β (Oryctolagus cuniculus, UniProt G1T8E2) (G1T8E2 1-432): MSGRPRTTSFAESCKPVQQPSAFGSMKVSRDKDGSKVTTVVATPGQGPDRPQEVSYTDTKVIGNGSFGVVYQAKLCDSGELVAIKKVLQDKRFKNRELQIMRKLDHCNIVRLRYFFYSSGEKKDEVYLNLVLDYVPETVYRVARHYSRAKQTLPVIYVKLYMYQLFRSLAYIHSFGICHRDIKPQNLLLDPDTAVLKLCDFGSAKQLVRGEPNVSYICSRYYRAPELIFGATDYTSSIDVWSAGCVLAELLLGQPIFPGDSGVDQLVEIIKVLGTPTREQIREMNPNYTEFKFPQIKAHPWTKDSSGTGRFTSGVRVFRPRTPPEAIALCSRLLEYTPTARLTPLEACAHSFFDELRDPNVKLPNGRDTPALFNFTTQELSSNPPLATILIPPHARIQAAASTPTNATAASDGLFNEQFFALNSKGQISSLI
Method for CDK1/cyclin B1: (§3) His6-tagged recombinant human cyclin-dependant kinases CDK1/cyclin B1, CDK2/cyclin E, CDK2/cyclin A, and CDK4 were expressed in sf9 insect cells using a baculovirus expression system. Recombinant cyclin D1 was expressed in E. coli. […] Kinase assays were performed in 96-well plates using recombinant CDK/cyclins. […] Reactions were stopped on ice, followed by filtration through p81 or GF/C filterplates (for CDK4) (Whatman Polyfiltronics, Kent, UK). After washing 3 times with 75 mM aq orthophosphoric acid, plates were dried, scintillant added and incorporated radioactivity measured in a scintillation counter (TopCount, Packard Instruments, Pangbourne, Berks, UK). Compounds for kinase assays were made up as 10 mM stocks in DMSO and diluted into 10% DMSO in assay buffer.
Method for CDK2/cyclin A: as §3
Method for CDK2/cyclin E: as §3
Method for CDK4/cyclin D1: as §3

For `Cc1c(-c2ccnc(Nc3ccc(F)c([N+](=O)[O-])c3)n2)sc(=O)n1C` [Compound 28, 5-[2-(4-Fluoro-3-nitro-phenylamino)-pyrimidin-4-yl]-3,4-dimethyl-3H-thiazol-2-one], the IC50 at GSK-3β [1] (setting [6]) was under 10 nM; at GSK-3β [1] (setting [7]), 2 nM; on CDK2/cyclin E, 170 nM; on CDK2/cyclin A, 80 nM; against CDK1/cyclin B1, 1030 nM; against CDK4/cyclin D1, 1800 nM. In addition, the “Selectivity, IC50 (CDK2/E)/IC50 (GSK3β)” value in the data set on GSK-3β [2] is given as 85.

`Cc1[nH]c(C#N)c(C)c1-c1ccnc(Nc2ccc(N(C)C)cc2)n1` [Compound 12, 4-[2-(4-Dimethylamino-phenylamino)-pyrimidin-4-yl]-3,5-dimethyl-1H-pyrrole-2-carbonitrile] showed a melting point of 190.6 to 193.7 °C. Further, the IC50 on GSK-3β [1] (setting [7]) is 1200 nM. Also, the “Selectivity, IC50 (CDK2/E)/IC50 (GSK3β)” value with GSK-3β [2] came to 0.5. The IC50 on CDK2/cyclin E stood at 540 nM. Further, in data set [3], the “-Fold induction of GS activity” value is 1.2 -fold. Also, the IC50 against CDK4/cyclin D1 was determined as 370 nM.

Turning to `Cc1ccc(Nc2nccc(-c3c(C)[nH]c(C#N)c3C)n2)cc1I` [Compound 8, 4-[2-(3-Iodo-4-methyl-phenylamino)-pyrimidin-4-yl]-3,5-dimethyl-1H-pyrrole-2-carbonitrile], the melting point lay in the range of 189.5 to 191.7 °C. The IC50 at GSK-3β [1] (setting [7]) came to 1800 nM. In addition, in the data set on GSK-3β [2], the “Selectivity, IC50 (CDK2/E)/IC50 (GSK3β)” value was found to be 0.5. Besides, the IC50 on CDK2/cyclin E is 860 nM. The compound further showed an IC50 on CDK4/cyclin D1 of 980 nM.

`Cc1[nH]c(C#N)c(C)c1-c1ccnc(Nc2ccc(C(F)(F)F)cc2)n1` [Compound 4, 3,5-Dimethyl-4-[2-(4-trifluoromethyl-phenylamino)-pyrimidin-4-yl]-1H-pyrrole-2-carbonitrile] registered a melting point of 195.6 to 198.9 °C. In addition, the IC50 on GSK-3β [1] (setting [7]) is 2400 nM. For the same compound, the “Selectivity, IC50 (CDK2/E)/IC50 (GSK3β)” value in the data set on GSK-3β [2] is given as 0.1. Further, the IC50 at CDK2/cyclin E turned out to be 180 nM. The compound also came in with an IC50 at CDK4/cyclin D1 of 2500 nM.

As to `Cc1[nH]c([N+](=O)[O-])c(C)c1-c1ccnc(Nc2ccc(N(C)C)c([N+](=O)[O-])c2)n1` [Compound 21, N^4-[4-(2,4-Dimethyl-5-nitro-1H-pyrrole-3-yl)-pyrimidin-2-yl]-N^1,N^1-dimethyl-2-nitro-benzene-1,4-diamine], the IC50 was under 100 nM at GSK-3β [1] (setting [6]); 40 nM on GSK-3β [1] (setting [7]); 140 nM on CDK2/cyclin E; 250 nM at CDK2/cyclin A; 300 nM against CDK1/cyclin B1; 1020 nM on CDK4/cyclin D1. Further, the “Selectivity, IC50 (CDK2/E)/IC50 (GSK3β)” value with GSK-3β [2] came out at 3.5. Moreover, the “activity of glycogen synthase, fractional reaction velocity (ratio of activity at 0.1 and 10 mM glucose-6 phosphate)” value was “increased the activity of glycogen synthase” in [3] (HEK293 cells, dose-dependent, FIG. 1); “increased the activity of glycogen synthase” in [4] (rat myocyte cells, dose-dependent, FIG. 1); “increased the activity of glycogen synthase” in data set [5] (mouse adipocyte cells, dose-dependent, FIG. 1). In addition, the “-Fold induction of GS activity” value in data set [3] is on record as 3.3 -fold. In addition, the “activation of GS” value in data set [4] (myocytes, at 1 μM) was 2 -fold; in [5] (adipocytes, at 1 μM), 4 -fold.

In the case of `Cc1c(-c2ccnc(Nc3ccc(N(C)C)c([N+](=O)[O-])c3)n2)c(C)n(C)c1C#N` [Compound 39, 4-[2-(4-Dimethylamino-3-nitro-phenylamino)-pyrimidin-4-yl]-1,3,5-trimethyl-1H-pyrrole-2-carbonitrile], the IC50 was under 100 nM at GSK-3β [1] (setting [6]); 19 nM at GSK-3β [1] (setting [7]); 160 nM at CDK2/cyclin E; 220 nM against CDK2/cyclin A; 180 nM against CDK1/cyclin B1; 1400 nM against CDK4/cyclin D1. Moreover, the “Selectivity, IC50 (CDK2/E)/IC50 (GSK3β)” value in the data set on GSK-3β [2] is recorded as 8.4. Further, the “-Fold induction of GS activity” value in data set [3] is recorded as 3.0 -fold.

Take `Cc1[nH]c(C#N)c(C)c1-c1ccnc(Nc2ccc(I)cc2)n1` [Compound 5, 4-[2-(4-Iodo-phenylamino)-pyrimidin-4-yl]-3,5-dimethyl-1H-pyrrole-2-carbonitrile]: the melting point fell in the range of 178.3 to 181.2 °C. In addition, the IC50 at GSK-3β [1] (setting [7]) is 1500 nM. The “Selectivity, IC50 (CDK2/E)/IC50 (GSK3β)” value in the data set with GSK-3β [2] stood at 0.4. Besides, on CDK2/cyclin E, the IC50 worked out at 550 nM. The IC50 at CDK4/cyclin D1 worked out at 1100 nM.

The compound `Cc1ccc(Nc2nccc(-c3sc(=O)n(C)c3C)n2)cc1[N+](=O)[O-]` [Compound 36, 3,4-Dimethyl-5-[2-(4-methyl-3-nitro-phenylamino)-pyrimidin-4-yl]-3H-thiazol-2-one] yielded a melting point of 88.4 to 91.6 °C. Also, the IC50 at GSK-3β [1] (setting [6]) was under 100 nM. The IC50 at GSK-3β [1] (setting [7]) is 30 nM. In the data set on GSK-3β [2], the “Selectivity, IC50 (CDK2/E)/IC50 (GSK3β)” value came to 4.5. In addition, on CDK2/cyclin E, the IC50 is 110 nM. The “-Fold induction of GS activity” value in [3] was 3.0 -fold. This compound yielded an IC50 against CDK1/cyclin B1 of 200 nM.

With `COc1ccc(Nc2nccc(-c3sc(=O)n(C)c3C)n2)cc1` [Compound 24, 5-[2-(4-Methoxy-phenylamino)-pyrimidin-4-yl]-3,4-dimethyl-3H-thiazol-2-one], the IC50 on GSK-3β [1] (setting [7]) stood at 1100 nM; at CDK2/cyclin E, 760 nM; at CDK2/cyclin A it was 700 nM; at CDK1/cyclin B1, 970 nM; at CDK4/cyclin D1, 1100 nM. Besides, in the data set on GSK-3β [2], the “Selectivity, IC50 (CDK2/E)/IC50 (GSK3β)” value worked out at 0.7.

As for `Cc1c(-c2ccnc(Nc3ccc(N(C)C)cc3)n2)c(C)n(C)c1C#N` [Compound 38, 4-[2-(4-Dimethylamino-phenylamino)-pyrimidin-4-yl]-1,3,5-trimethyl-1H-pyrrole-2-carbonitrile], the IC50 was determined as 120 nM on GSK-3β [1] (setting [7]); 1100 nM at CDK2/cyclin E; 930 nM on CDK2/cyclin A; 2800 nM against CDK1/cyclin B1; 1300 nM at CDK4/cyclin D1. Moreover, the “Selectivity, IC50 (CDK2/E)/IC50 (GSK3β)” value in the data set on GSK-3β [2] is on record as 9.2. Moreover, the “-Fold induction of GS activity” value in data set [3] is 1.3 -fold.

On to `Cc1[nH]c([N+](=O)[O-])c(C)c1-c1ccnc(Nc2ccc(N(C)C)cc2)n1` [Compound 15, N-[4-(2,4-Dimethyl-5-nitro-1H-pyrrole-3-yl)-pyrimidin-2-yl]-N′,N′-dimethyl-benzene-1,4-diamine], for which the melting point fell in the range of 265 to 268 °C. Moreover, the IC50 at GSK-3β [1] (setting [7]) turned out to be 950 nM. In the data set on GSK-3β [2], the “Selectivity, IC50 (CDK2/E)/IC50 (GSK3β)” value was found to be 1.0. Further, the IC50 at CDK2/cyclin E was determined as 960 nM. Moreover, the IC50 on CDK4/cyclin D1 amounted to 1000 nM.

On to `Cc1cc(Nc2nccc(-c3c(C)[nH]c(C#N)c3C)n2)ccc1Cl` [Compound 9, 4-[2-(4-Chloro-3-methyl-phenylamino)-pyrimidin-4-yl]-3,5-dimethyl-1H-pyrrole-2-carbonitrile], for which the melting point was 194.2 to 197.9 °C. For the same compound, the IC50 on GSK-3β [1] (setting [7]) was 3400 nM. The “Selectivity, IC50 (CDK2/E)/IC50 (GSK3β)” value in the data set with GSK-3β [2] came out at 0.3. The IC50 at CDK2/cyclin E turned out to be 1000 nM. On CDK4/cyclin D1, this compound returned an IC50 of 4000 nM.

With `Cc1[nH]c(Br)c(C)c1-c1ccnc(Nc2cccc([N+](=O)[O-])c2)n1` [Compound 17, [4-(5-Bromo-2,4-dimethyl-1H-pyrrole-3-yl)-pyrimidin-2-yl]-(3-nitro-phenyl)-amine], the melting point is 198.1 to 203 °C. On GSK-3β [1] (setting [6]), the IC50 is under 1000 nM. Moreover, the IC50 on GSK-3β [1] (setting [7]) turned out to be 280 nM. The “Selectivity, IC50 (CDK2/E)/IC50 (GSK3β)” value in the data set on GSK-3β [2] is 1.3. Moreover, the IC50 at CDK2/cyclin E came out at 370 nM. The same compound gave an IC50 against CDK4/cyclin D1 of 4000 nM.

As usually defined, the melting point is the temperature of the solid-liquid transition.
